Settings: instrument: DT, single field, calibrated with Agilent tune mix (Agilent)

Row | Compound | collision cross section (N2) ([M-H]-) [Å²] | collision cross section (N2) ([M+H]+) [Å²] | other results
1 | O=CNc1ccccc1C(=O)O [Formylanthranilic acid] | 127.28 | – | collision cross section (N2) ([M+H-H2O]+): 125.7 Å²
2 | CC(C)CCC[C@@H](C)[C@H]1CC[C@H]2C3=CC[C@H]4C[C@@H](O)CC[C@]4(C)[C@H]3CC[C@]12C [Lathosterol] | – | – | collision cross section (N2) ([M+H-H2O]+): 204.5 Å²
3 | NC(=NCCC[C@H](N)C(=O)O)N[C@@H](CC(=O)O)C(=O)O [Argininosuccinic acid] | – | 163.9 | collision cross section (N2) ([M+Na-2H]-): 159.57 Å²
4 | NCCP(=O)(O)O [Ciliatine] | 118.25 | 128.7 | –
5 | NC(=O)CC[C@H](NC(=O)Cc1ccccc1)C(=O)O [Alpha-N-Phenylacetyl-L-glutamine] | 162.82 | 158.7 | –
6 | CC(C)(CO)[C@@H](O)C(=O)NCCC(=O)NCCS [Pantetheine] | – | – | collision cross section (N2) ([M+H-H2O]+): 164.6 Å²; collision cross section (N2) ([M+Na-2H]-): 164.94 Å²
7 | CCCCCCCCCCCCCCCCCC(=O)OC[C@H](O)[C@H]1OC(=O)C(O)=C1O [Ascorbyl stearate] | 207.62 | – | –
8 | NCCc1c[nH]c2ccccc12 [Tryptamine] | 131.55 | – | collision cross section (N2) ([M+H-H2O]+): 125.1 Å²
9 | O=C(CO)[C@H](O)[C@H](O)COP(=O)(O)O [D-Ribulose 5-phosphate] | – | – | collision cross section (N2) ([M+Na]+): 148.8 Å²
10 | OC[C@H]1O[C@@H](Oc2ccc(O)cc2)[C@H](O)[C@@H](O)[C@@H]1O [Arbutin] | – | – | collision cross section (N2) ([M+Na-2H]-): 159.52 Å²; collision cross section (N2) ([M+Na]+): 166.6 Å²
11 | Nc1ncnc2c1ncn2[C@@H]1O[C@H](COP(=O)(O)O)[C@@H](OP(=O)(O)O)[C@H]1O [Adenosine 3',5'-diphosphate] | – | 182.5 | collision cross section (N2) ([M-H2O-H]-): 179.49 Å²
12 | Nc1ccn(C2O[C@H](CO)[C@H]3OP(=O)(O)O[C@@H]23)c(=O)n1 (stereo partly drawn) [Cytidine 2',3'-cyclic phosphate] | – | 162.3 | collision cross section (N2) ([M+Na-2H]-): 161.98 Å²
13 | Nc1nc(=O)c2c([nH]1)NCC(CNc1ccc(C(=O)N[C@@H](CCC(=O)O)C(=O)O)cc1)N2C=O (stereo partly drawn) [Folinic acid] | 196.26 | 196.9 | –
14 | C[n+]1cccc(C(N)=O)c1 [1-Methylnicotinamide] | – | – | collision cross section (N2) ([M]+): 126.4 Å²
15 | CC(C)(COP(=O)(O)OP(=O)(O)OC[C@H]1O[C@@H](n2cnc3c(N)ncnc32)[C@H](O)[C@@H]1OP(=O)(O)O)[C@@H](O)C(=O)NCCC(=O)NCCSC(=O)CCCC(=O)O [Glutaryl-CoA] | 252.39 | 260.5 | –
16 | Nc1nc(=O)c2nc([C@H](O)[C@H](O)CO)cnc2[nH]1 [D-Neopterin] | 150.31 | 157.1 | –
17 | Nc1ccn([C@H]2C[C@H](O)[C@@H](COP(=O)(O)OP(=O)(O)OP(=O)(O)O)O2)c(=O)n1 [Deoxycytidine 5'-triphosphate] | 176.92 | – | –
18 | CC(C)=CCC/C(C)=C/COP(=O)(O)OP(=O)(O)O [Geranyl diphosphate] | – | – | collision cross section (N2) ([M-H2O-H]-): 161.5 Å²

Row | Compound | collision cross section (N2) ([M-H]-) [Å²] | collision cross section (N2) ([M+H]+) [Å²] | other results
19 | O=C(O)c1ccc([O-])c(O)c1 [3,4-Dihydroxybenzoate] | 120.45 | – | –
20 | Nc1nc(=O)c2ncn([C@H]3C[C@H](O)[C@@H](COP(=O)(O)O)O3)c2[nH]1 [2'-Deoxyguanosine 5'-monophosphate] | – | – | collision cross section (N2) ([M+Na-2H]-): 167.93 Å²; collision cross section (N2) ([M+Na]+): 169.7 Å²
21 | Nc1c(O)cccc1C(=O)C[C@H](N)C(=O)O [3-Hydroxy-L-kynurenine] | – | – | collision cross section (N2) ([M+H-H2O]+): 137.5 Å²
22 | NCCC[C@@H](N)C(=O)O [D-Ornithine] | 126.74 | – | –
23 | O=C(O)Cc1cc(O)ccc1O [Homogentisic acid] | – | – | collision cross section (N2) ([M+H-H2O]+): 135.9 Å²
24 | CC(C)C(O)C(=O)O (stereo not drawn) [2-Hydroxy-3-methylbutyric acid] | 118.65 | – | –
25 | Cn1cncc1C[C@H](N)C(=O)O [3-Methylhistidine] | 134.37 | 134.1 | –
26 | CCCCCCCC(=O)O [Caprylic acid] | 139.46 | – | –
27 | O=C(O)c1cc(O)ccc1O [Gentisic acid] | 122.67 | – | –
28 | Nc1ncnc2c1ncn2[C@@H]1O[C@H](COP(=O)(O)OP(=O)(O)O[C@H]2O[C@H](CO)[C@@H](O)[C@H](O)[C@H]2O)[C@@H](O)[C@H]1O [ADP-glucose] | – | 214.5 | –
29 | O=C(O)CNC(=O)c1cccnc1 [Nicotinuric acid] | 138.08 | 143.6 | –
30 | COc1ccc2[nH]cc(CCN)c2c1 [5-Methoxytryptamine] | 141.18 | – | –
31 | Cn1c[n+]([C@@H]2O[C@H](CO)[C@@H](O)[C@H]2O)c2[nH]c(N)nc(=O)c21 [7-Methylguanosine] | – | – | collision cross section (N2) ([M]+): 166.5 Å²
32 | COc1cc(/C=C/CO)ccc1O [Coniferol] | 138.18 | – | collision cross section (N2) ([M+H-H2O]+): 128.6 Å²
33 | NC(=O)NC(NC(N)=O)C(=O)O [Allantoic acid] | – | – | collision cross section (N2) ([M+Na]+): 143 Å²
34 | C[C@]12CCC(=O)C[C@@H]1CC[C@@H]1[C@@H]2CC[C@]2(C)C(=O)CC[C@@H]12 [5alpha-Androstane-3,17-dione] | 174.32 | 180.6 | –
35 | Nc1ncnc2c1ncn2[C@@H]1O[C@H](COP(=O)(O)OP(=O)(O)OC[C@H]2O[C@@H]([n+]3cccc(C(=O)O)c3)[C@H](O)[C@@H]2O)[C@@H](O)[C@H]1O [Nicotinic acid adenine dinucleotide] | – | – | collision cross section (N2) ([M+2Na-3H]-): 238.49 Å²
36 | O=C(O)CC(Nc1ncnc2c1ncn2[C@@H]1O[C@H](COP(=O)(O)O)[C@@H](O)[C@H]1O)C(=O)O (stereo partly drawn) [Adenylsuccinic acid] | 183.19 | – | collision cross section (N2) ([M+Na]+): 195.6 Å²

The next lines start with results.

Row | collision cross section (N2) ([M-H]-) [Å²] | collision cross section (N2) ([M+H]+) [Å²] | Compound | other results
37 | – | 136.2 | COc1cc(C(=O)O)ccc1O [Vanillic acid] | –
38 | – | 187.7 | CC(O)C(=O)SC[C@H](NC(=O)CC[C@H](N)C(=O)O)C(=O)NCC(=O)O (stereo partly drawn) [S-Lactoylglutathione] | collision cross section (N2) ([M+Na-2H]-): 176.59 Å²
39 | 170.78 | – | CCCCCCCCCCCCCCCCC(=O)O [Heptadecanoic acid] | –
40 | 196.32 | – | CCCCCCCC/C=C\CCCCCCCCCCCCCC(=O)O [Nervonic acid] | collision cross section (N2) ([M+H-H2O]+): 196.8 Å²
41 | 139.51 | 147 | N[C@@H](CCSC[C@H](N)C(=O)O)C(=O)O [L-Cystathionine] | –
42 | 145.48 | – | O=P(O)(O)O[C@H]1O[C@H](CO)[C@@H](O)[C@H](O)[C@H]1O [alpha-D-Glucose 1-phosphate] | collision cross section (N2) ([M+Na]+): 158 Å²
43 | – | 149.1 | Nc1ccccc1C(=O)C[C@H](N)C(=O)O [L-Kynurenine] | –
44 | 141.49 | 144.7 | CC(C)(CO)[C@@H](O)C(=O)NCCCO [Pantothenol] | –
45 | 141.71 | – | C=C(C)CCOP(=O)(O)OP(=O)(O)O [Isopentenyl pyrophosphate] | –
46 | 134.59 | 136.4 | NCC(=O)N1CCCC1C(=O)O (stereo not drawn) [Glycylproline] | –
47 | – | 142 | C[N+](C)(C)CCCC[C@H](N)C(=O)[O-] [N6,N6,N6-Trimethyl-L-lysine] | –
48 | 162.72 | – | CCCCCCCCCCCCCCC(=O)O [Pentadecanoic Acid] | –
49 | 143.33 | – | CCCCCCCCC(=O)O [Pelargonic acid] | –
50 | 156.42 | – | CC(=O)N[C@H]1C(OP(=O)(O)O)O[C@H](CO)[C@@H](O)[C@@H]1O (stereo partly drawn) [N-Acetylglucosamine 1-phosphate] | collision cross section (N2) ([M+Na]+): 166.6 Å²
51 | – | 226.7 | NC(=O)c1ccc[n+]([C@@H]2O[C@H](COP(=O)([O-])OP(=O)(O)OC[C@H]3O[C@@H](n4cnc5c(N)ncnc54)[C@H](O)[C@@H]3O)[C@@H](O)[C@H]2O)c1 [Nicotinamide adenine dinucleotide (NAD)] | –
52 | 146.22 | – | NCc1[nH]cc(CCC(=O)O)c1CC(=O)O [Porphobilinogen] | collision cross section (N2) ([M+Na]+): 148.1 Å²
53 | 142.07 | 149.5 | CC(C)C[C@H](NC(=O)CN)C(=O)O [Glycyl-L-leucine] | –
54 | 126.06 | – | CC(C)C[C@H](O)C(=O)O [Hydroxyisocaproic acid] | –
55 | – | 178.9 | Nc1nc(=O)c2ncn([C@@H]3O[C@H](COP(=O)(O)O)[C@@H](O)[C@H]3O)c2[nH]1 [Guanosine 5'-monophosphate] | –
56 | – | 164.9 | N[C@@H](CC(=O)O)C(=O)N[C@@H](Cc1ccccc1)C(=O)O [L-Aspartyl-L-phenylalanine] | collision cross section (N2) ([M+Na-2H]-): 162.34 Å²
57 | 120.1 | 126.7 | O=c1nc2[nH][nH]cc-2c(=O)[nH]1 [Oxypurinol] | –
58 | 248.67 | – | CCCCCCCCCCCCC/C=C/[C@@H](O)[C@H](CO)NC(=O)CCCCCCCCCCCCCCCCC [N-Stearoylsphingosine] | collision cross section (N2) ([M+Na]+): 256.4 Å²
59 | 129.29 | – | O=C(O)CCCCCC(=O)O [Pimelic acid] | –
60 | 131.6 | – | O=C1O[C@H]([C@@H](O)CO)[C@H](O)[C@@H]1O [L-Gulonic gamma-lactone] | collision cross section (N2) ([M+Na]+): 140.6 Å²
61 | 146.81 | – | O=C(O)CCCCCCC(=O)NCC(=O)O [Suberylglycine] | collision cross section (N2) ([M+Na]+): 153.7 Å²
